According to ChEMBL document CHEMBL1806384, “Identification of benzofuran-4,5-diones as novel and selective non-hydroxamic acid, non-peptidomimetic based inhibitors of human peptide deformylase” (Bioorg Med Chem Lett, 2011):

Tested on: Jurkat
Experiment: Cytotoxicity against human Jurkat cells
Assay type: functional, cell-based

Compound | IC50 [µM]
COc1ccc(C(=O)c2coc3c(Br)c(Br)c(O)cc23)cc1OC | 37
COc1ccc(C(=O)c2coc3c(Cl)cc(O)c(Cl)c23)cc1 | 100
COc1ccc(C(=O)c2coc3c(Br)cc(O)cc23)cc1 | 100

Tested on: not listed separately
Experiment: Cytotoxicity against human CWR22 cells
Assay type: functional, cell-based

Compound | IC50 [µM]
COc1ccc(C(=O)c2coc3c(Br)c(Br)c(O)cc23)cc1OC | 100
COc1ccc(C(=O)c2coc3c(Cl)cc(O)c(Cl)c23)cc1 | 100
COc1ccc(C(=O)c2coc3c(Br)cc(O)cc23)cc1 | 100

Tested on: HL-60
Experiment: Cytotoxicity against human vincristine-resistant HL60 cells
Assay type: functional, cell-based

Compound | IC50 [µM]
COc1ccc(C(=O)c2coc3c(Br)c(Br)c(O)cc23)cc1OC | 100
COc1ccc(C(=O)c2coc3c(Cl)cc(O)c(Cl)c23)cc1 | 100
COc1ccc(C(=O)c2coc3c(Br)cc(O)cc23)cc1 | 100

Target: T1, Aminopeptidase N (Sus scrofa) (UniProt P15145)
T1 sequence (whole entry): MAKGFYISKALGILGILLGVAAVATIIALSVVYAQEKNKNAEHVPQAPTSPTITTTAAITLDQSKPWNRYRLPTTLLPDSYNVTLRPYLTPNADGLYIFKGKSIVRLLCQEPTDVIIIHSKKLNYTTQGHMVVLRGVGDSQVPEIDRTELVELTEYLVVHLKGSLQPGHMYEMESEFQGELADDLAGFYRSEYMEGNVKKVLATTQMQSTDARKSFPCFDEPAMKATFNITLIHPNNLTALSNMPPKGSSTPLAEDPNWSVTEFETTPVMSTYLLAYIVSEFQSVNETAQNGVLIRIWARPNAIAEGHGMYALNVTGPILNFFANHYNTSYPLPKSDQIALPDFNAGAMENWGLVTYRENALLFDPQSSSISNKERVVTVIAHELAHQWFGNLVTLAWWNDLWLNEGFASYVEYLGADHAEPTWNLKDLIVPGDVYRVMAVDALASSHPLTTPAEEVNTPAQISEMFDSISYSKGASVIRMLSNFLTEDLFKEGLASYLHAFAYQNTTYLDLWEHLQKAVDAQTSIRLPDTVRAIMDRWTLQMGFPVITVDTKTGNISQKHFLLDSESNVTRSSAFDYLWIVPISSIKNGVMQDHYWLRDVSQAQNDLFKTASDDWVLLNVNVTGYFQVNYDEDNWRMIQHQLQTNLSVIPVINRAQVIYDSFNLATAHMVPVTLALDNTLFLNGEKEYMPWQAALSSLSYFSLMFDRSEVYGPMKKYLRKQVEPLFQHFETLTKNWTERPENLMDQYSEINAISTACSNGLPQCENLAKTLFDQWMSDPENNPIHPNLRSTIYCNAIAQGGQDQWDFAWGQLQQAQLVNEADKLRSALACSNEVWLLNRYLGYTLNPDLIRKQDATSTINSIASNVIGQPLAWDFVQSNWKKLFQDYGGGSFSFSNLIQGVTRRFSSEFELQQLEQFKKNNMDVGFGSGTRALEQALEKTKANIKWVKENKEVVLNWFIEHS
Experiment: Inhibition of porcine kidney microsomal aminopeptidase N at 100 uM after 1 hr by fluorescence polarization based competition assay

Compound | inhibition [%]
COc1cc(C(=O)c2coc3c2C(=O)C(=O)c2ccccc2-3)cc(OC)c1OC | 10
COc1ccc(C(=O)c2coc3c(Br)c(Br)c(O)cc23)cc1OC | 0
COc1ccc(C(=O)c2coc3c(Cl)cc(O)c(Cl)c23)cc1 | 0
COc1ccc(C(=O)c2coc3c(Br)cc(O)cc23)cc1 | 0
COc1ccc(C(=O)c2coc3c2C(=O)C(=O)c2ccccc2-3)cc1OC | 0
COc1ccc(C(=O)c2coc3c2C(=O)C(=O)c2ccccc2-3)cc1 | 0

Tested on: Y79
Experiment: Cytotoxicity against human Y79 cells
Assay type: functional, cell-based

Compound | IC50 [µM]
COc1ccc(C(=O)c2coc3c(Br)c(Br)c(O)cc23)cc1OC | 100
COc1ccc(C(=O)c2coc3c(Cl)cc(O)c(Cl)c23)cc1 | 100
COc1ccc(C(=O)c2coc3c(Br)cc(O)cc23)cc1 | 100

Target: T2, Peptide deformylase (Escherichia coli) (UniProt Q9JN24)
T2 sequence (whole entry): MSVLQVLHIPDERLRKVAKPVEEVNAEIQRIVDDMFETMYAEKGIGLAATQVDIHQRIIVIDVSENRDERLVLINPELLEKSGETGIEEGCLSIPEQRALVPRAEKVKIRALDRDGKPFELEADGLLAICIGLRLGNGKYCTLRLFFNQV
Experiment: Inhibition of Escherichia coli peptide deformylase at 100 uM after 1 hr by fluorescence polarization based competition assay

Compound | inhibition [%]
COc1cc(C(=O)c2coc3c2C(=O)C(=O)c2ccccc2-3)cc(OC)c1OC | 7
COc1ccc(C(=O)c2coc3c(Br)c(Br)c(O)cc23)cc1OC | 0
COc1ccc(C(=O)c2coc3c(Cl)cc(O)c(Cl)c23)cc1 | 0
COc1ccc(C(=O)c2coc3c(Br)cc(O)cc23)cc1 | 9
COc1ccc(C(=O)c2coc3c2C(=O)C(=O)c2ccccc2-3)cc1OC | 0
COc1ccc(C(=O)c2coc3c2C(=O)C(=O)c2ccccc2-3)cc1 | 3

Tested on: not listed separately
Experiment: Cytotoxicity against human Meso47 cells
Assay type: functional, cell-based

Compound | IC50 [µM]
COc1ccc(C(=O)c2coc3c(Br)c(Br)c(O)cc23)cc1OC | 100
COc1ccc(C(=O)c2coc3c(Cl)cc(O)c(Cl)c23)cc1 | 100
COc1ccc(C(=O)c2coc3c(Br)cc(O)cc23)cc1 | 100

Tested on: not listed separately
Experiment: Cytotoxicity against human ALL3 cells
Assay type: functional, cell-based

Compound | IC50 [µM]
COc1ccc(C(=O)c2coc3c(Br)c(Br)c(O)cc23)cc1OC | 100
COc1ccc(C(=O)c2coc3c(Cl)cc(O)c(Cl)c23)cc1 | 100
COc1ccc(C(=O)c2coc3c(Br)cc(O)cc23)cc1 | 100

Tested on: HEK293
Experiment: Cytotoxicity against human HEK293 cells
Assay type: cell-based

Compound | IC50 [µM]
COc1ccc(C(=O)c2coc3c(Br)c(Br)c(O)cc23)cc1OC | 52
COc1ccc(C(=O)c2coc3c(Cl)cc(O)c(Cl)c23)cc1 | 100
COc1ccc(C(=O)c2coc3c(Br)cc(O)cc23)cc1 | 100

Target: T3, Peptide deformylase, mitochondrial (Homo sapiens) (UniProt Q9HBH1)
T3 sequence (whole entry): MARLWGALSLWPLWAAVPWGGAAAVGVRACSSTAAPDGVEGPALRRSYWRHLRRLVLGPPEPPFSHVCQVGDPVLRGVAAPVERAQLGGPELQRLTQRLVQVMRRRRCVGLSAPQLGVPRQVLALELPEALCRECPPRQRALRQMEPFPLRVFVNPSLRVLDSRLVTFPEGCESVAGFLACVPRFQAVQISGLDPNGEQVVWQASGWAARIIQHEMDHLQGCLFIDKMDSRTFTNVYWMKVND
Experiment: Inhibition of human peptide deformylase at 100 uM after 1 hr by fluorescence polarization based competition assay

Compound | inhibition [%]
COc1cc(C(=O)c2coc3c2C(=O)C(=O)c2ccccc2-3)cc(OC)c1OC | 5
COc1ccc(C(=O)c2coc3c(Br)c(Br)c(O)cc23)cc1OC | 0
COc1ccc(C(=O)c2coc3c(Cl)cc(O)c(Cl)c23)cc1 | 9
COc1ccc(C(=O)c2coc3c(Br)cc(O)cc23)cc1 | 11
COc1ccc(C(=O)c2coc3c2C(=O)C(=O)c2ccccc2-3)cc1OC | 0
COc1ccc(C(=O)c2coc3c2C(=O)C(=O)c2ccccc2-3)cc1 | 0

Tested on: MOLT-3
Experiment: Cytotoxicity against human MOLT3 cells
Assay type: functional, cell-based

Compound | IC50 [µM]
COc1ccc(C(=O)c2coc3c(Br)c(Br)c(O)cc23)cc1OC | 52
COc1ccc(C(=O)c2coc3c(Cl)cc(O)c(Cl)c23)cc1 | 100
COc1ccc(C(=O)c2coc3c(Br)cc(O)cc23)cc1 | 100

Target: T4, Interstitial collagenase (Homo sapiens) (UniProt P03956)
T4 sequence (whole entry): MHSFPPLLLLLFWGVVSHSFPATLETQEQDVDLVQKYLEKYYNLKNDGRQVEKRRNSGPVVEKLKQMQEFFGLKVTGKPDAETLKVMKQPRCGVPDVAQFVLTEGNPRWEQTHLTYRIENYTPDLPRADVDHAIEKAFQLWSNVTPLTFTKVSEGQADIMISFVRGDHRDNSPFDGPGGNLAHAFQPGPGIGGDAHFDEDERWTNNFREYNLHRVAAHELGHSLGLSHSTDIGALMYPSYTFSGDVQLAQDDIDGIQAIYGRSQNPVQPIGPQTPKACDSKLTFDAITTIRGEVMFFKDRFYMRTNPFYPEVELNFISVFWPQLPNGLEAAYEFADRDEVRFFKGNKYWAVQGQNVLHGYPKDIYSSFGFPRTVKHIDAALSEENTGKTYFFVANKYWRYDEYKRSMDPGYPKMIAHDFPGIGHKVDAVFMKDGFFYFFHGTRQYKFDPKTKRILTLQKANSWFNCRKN
Experiment: Inhibition of human recombinant MMP1 at 100 uM after 1 hr by fluorescence polarization based competition assay

Compound | inhibition [%]
COc1cc(C(=O)c2coc3c2C(=O)C(=O)c2ccccc2-3)cc(OC)c1OC | 0
COc1ccc(C(=O)c2coc3c(Br)c(Br)c(O)cc23)cc1OC | 0
COc1ccc(C(=O)c2coc3c(Cl)cc(O)c(Cl)c23)cc1 | 0
COc1ccc(C(=O)c2coc3c(Br)cc(O)cc23)cc1 | 0
COc1ccc(C(=O)c2coc3c2C(=O)C(=O)c2ccccc2-3)cc1OC | 0
COc1ccc(C(=O)c2coc3c2C(=O)C(=O)c2ccccc2-3)cc1 | 2

Tested on: HL-60
Experiment: Cytotoxicity against human HL60 cells
Assay type: functional, cell-based

Compound | IC50 [µM]
COc1ccc(C(=O)c2coc3c(Br)c(Br)c(O)cc23)cc1OC | 57
COc1ccc(C(=O)c2coc3c(Cl)cc(O)c(Cl)c23)cc1 | 100
COc1ccc(C(=O)c2coc3c(Br)cc(O)cc23)cc1 | 100
